We go through five molecules from patent US10421751B2, “Dihydro-2H-benzo[b][1,4]oxazine sulfonamide and related compounds for use as agonists of RORγ and the treatment of disease” (Lycera Corporation, priority 2015, dated 2019).

The target of one experiment is T1, RORγ-LBD (Homo sapiens, UniProt P51449).
T1 construct: made in house; host or cells: SF9 cells, baculovirus expression system; used as diluted lysate
T1 sequence (P51449 269-508 limits assumed): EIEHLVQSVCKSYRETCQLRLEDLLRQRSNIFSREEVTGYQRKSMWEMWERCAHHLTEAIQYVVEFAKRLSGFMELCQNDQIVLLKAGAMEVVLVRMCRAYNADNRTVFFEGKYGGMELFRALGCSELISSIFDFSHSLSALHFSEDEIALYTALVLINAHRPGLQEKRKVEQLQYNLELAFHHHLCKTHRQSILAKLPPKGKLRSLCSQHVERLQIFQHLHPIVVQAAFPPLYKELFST
Kind of experiment: RORγ-Ligand Binding Domain (LBD) TR-FRET Assay. In kind it is biochemical. The following applies: for EC50: in presence of 2 μM RORγ antagonist ursolic acid, SRC1 coactivator peptide; for TR-FRET Assay Max Response: upper plateau of 4-parameter fit, signal in the absence of ursolic acid or test compound set as 100. As to the method: HIS-tagged RORγ-LBD protein was expressed in SF9 cells using a baculovirus expression system. The lysate was diluted in assay buffer (50 mM Tris pH 7.0, 50 mM KCl, 1 mM EDTA, 0.1 mM DTT, 0.01% BSA) to obtain RORγ-LBD final concentration of ˜3 nM in a 384-well assay plate (need to titrate for each batch of protein).
A stock of biotinylated-LXXLL peptide from coactivator SRC1 (Biotin-[…]) was prepared in assay buffer and added to each well (200 nM final concentration). A solution of Europium tagged anti-HIS antibody (0.6 nM final concentration) and APC-conjugated streptavidin (30 nM final concentration) were also added to each well. RORγ antagonist ursolic acid was also included at a final concentration of 2 μM. Compounds were diluted in DMSO and further diluted in assay buffer with a final DMSO concentration at 1%.
The final assay mixture was incubated overnight at 4° C. or 2 hours at room temperature, and the fluorescence signal was measured on an Envision plate reader: (Excitation filter=340 nm; APC emission=665 nm; Europium emission=615 nm; dichroic mirror=D400/D630; delay time=100 μs, integration time=200 μs). 50% Effective concentration (EC50) values for test compounds were calculated from the quotient of the fluorescence signal at 665 nm divided by the fluorescence signal at 615 nm. The quotient of the fluorescence signals in the absence of ursolic acid or test compound is set as 100. Max Response is defined as the upper plateau in the signal as determined by line-fit using a 4-parameter logistic model in PRISM (GraphPad).
In general terms: In TR-FRET formats the signal depends on donor and acceptor labels being close together.

Another experiment has as its target T2, Gal4-RORγ-LBD (Homo sapiens, UniProt P51449).
T2 construct: expressed in transfected cells; pcDNA3.1neo plasmid, co-transfected with pGL4.31 Gal4-luciferase reporter
T2 sequence (P51449 269-508 limits assumed): T1 sequence (P51449 269-508 limits assumed)
Kind of experiment: Gal4-RORγ Luciferase Reporter Assay in HEK-293T Cells. The following applies: for EC50: HEK-293 cells, in presence of 2 μM ursolic acid, overnight incubation, read-out: Ga14-RORγ Assay EC50; for Ga14-RORγ Assay Max Response: upper plateau of 4-parameter fit, luciferase signal in the absence of ursolic acid or test compound defined at 100. Format: cell-based. The method, then: In the following protocol, HEK-293 cells were transfected with a construct comprising the Gal4 DNA binding domain fused to the ligand binding domain of RORγ (Gal4-RORγ-LBD) in a pcDNA3.1neo plasmid, and also with a reporter construct comprising pGL4.31 Gal4-luciferase (Promega). Control cells were prepared similarly using empty pcDNA3.1neo and pGL4.31 vectors.
Trans-IT reagent (Mirus, 60 μL) at room temperature was added drop wise to OptiMEM (Invitrogen, 1.5 ml). This reagent mixture was mixed by inversion then incubated for 5 to 30 minutes at room temperature. It then was added to a solution of both expression vectors (5 μg each), mixed, and incubated at room temperature for about 20 minutes. HEK-293 cells were harvested from incubation flasks by removing the media, treating with TrypLE Express (Invitrogen), and incubating until the cells detached from the bottom of the flask (approximately 2-5 minutes). 10 Million cells were collected by centrifugation and re-suspended in 10 mL of Dulbecco's Modified Eagle Medium, High Glucose (DMEM, Invitrogen) containing 10% Fetal Bovine Serum and 100 IU each of penicillin and streptomycin. The re-suspended cells and the transfection mixture were added to a T75 flask, mixed and incubated overnight at 37° C. and 5% CO2.
The cells were harvested as described above, counted, and centrifuged to obtain the desired number of cells, then re-suspended in complete growth media at 0.75×10^6 cells/mL. The RORγ antagonist, ursolic acid, was added to the cells at a final concentration of 2 μM. Cells were plated at 20 μL of cell suspension/well (10,000-15,000 cells/well) in white tissue culture treated 384 well plates. Test compounds were dissolved at 10 mM in DMSO then diluted into complete growth medium to 5× the final intended test concentration. These drug stock solutions, 5 μL/well were added to the tissue culture plate. The final DMSO concentration was 0.2%. The plates were briefly centrifuged then incubated overnight at 37° C. and 5% CO2. To conduct the assay, the tissue culture plates were allowed to equilibrate to room temperature and One-Glo luciferase reagent (Promega, 25 μL/well) was added. The plates were briefly centrifuged then incubated at room temperature for 10 minutes. The luciferase intensity was read on an Envision plate reader (Perkin Elmer). RORγ activity was determined relative to controls and plotted as a function of test compound concentration using PRISM (GraphPad) to determine a 50% effective concentration (EC50). The luciferase signal in the absence of ursolic acid or test compound is defined at 100. The Max Response is the upper plateau in the signal as determined by line-fit using a 4-parameter logistic model in PRISM (GraphPad).
A general note: A reporter such as luciferase makes a cellular process visible.

Bounds are passed on as bounds.

Regarding `C/C(=C\c1ccc2c(c1)N(S(=O)(=O)c1cccc(C(F)(F)F)c1)C[C@H](CCn1cc(C(=O)O)nn1)O2)c1c(F)cccc1Cl`, on RORγ-LBD, the half-maximal effective concentration (EC50) (usually the concentration that produces a half-maximal response) is below 100 nM and the “TR-FRET Assay Max Response” value is reported as “*** (a value in the range of greater than 150 to 200)”. Also, at Gal4-RORγ-LBD, the EC50 was 100 to 5000 nM and the “Ga14-RORγ Assay Max Response” value is reported as “*** (a value in the range of greater than 150 to 200)”.
With `C/C(=C\c1ccc2c(c1)N(S(=O)(=O)c1cccc(C(F)(F)F)c1)C[C@H](CCc1noc(=O)[nH]1)O2)c1c(F)cccc1Cl`, on RORγ-LBD, the 50% effective concentration (EC50) was below 100 nM and the “TR-FRET Assay Max Response” value is “*** (a value in the range of greater than 150 to 200)”. Besides, at Gal4-RORγ-LBD, the EC50 was in the range of 100 to 5000 nM and the “Ga14-RORγ Assay Max Response” value is given as “*** (a value in the range of greater than 150 to 200)”.
`COc1cc(S(=O)(=O)N2C[C@H](CCOc3noc(=O)[nH]3)Oc3ccc(/C=C(\C)c4c(F)cccc4Cl)cc32)ccc1F`: on RORγ-LBD, the EC50 was below 100 nM and the “TR-FRET Assay Max Response” value was “*** (a value in the range of greater than 150 to 200)”. Also, at Gal4-RORγ-LBD, the concentration for a half-maximal effect (EC50) fell in the range of 100 to 5000 nM and the “Ga14-RORγ Assay Max Response” value is recorded as “**** (a value greater than 200)”.
For `C/C(=C\c1ccc2c(c1)N(S(=O)(=O)c1cccc(C(F)(F)F)c1)[C@H](C)[C@H](Cn1cccn1)C2)c1c(F)cccc1Cl` the same measures were below 100 nM, “*** (a value in the range of greater than 150 to 200)”, 100 to 5000 nM and “** (a value in the range of greater than 90 to 150)”.
In the case of `C/C(=C\c1ccc2c(c1)N(S(=O)(=O)c1cccc(C(F)(F)F)c1)C[C@H](CCOc1noc(=O)[nH]1)O2)c1c(F)cccc1Cl`, on RORγ-LBD, the EC50 is below 100 nM and the “TR-FRET Assay Max Response” value was “*** (a value in the range of greater than 150 to 200)”. Besides, on Gal4-RORγ-LBD, the EC50 is 100 to 5000 nM and the “Ga14-RORγ Assay Max Response” value is given as “** (a value in the range of greater than 90 to 150)”.
